From patent publication US20240360153A1 (Regeneron Pharmaceuticals, Inc., priority 2023, published 2024)

Tests used:
[1] = In vitro microsomal metabolic stability, human liver microsomes; type: in vitro ADME; settings: for Remaining (T = 60 min) / Remaining (T = NCF60 min) / half-life at 1 µM: Human liver microsomes; for Remaining (T = 60 min): with NADPH; for Remaining (T = NCF60 min): without NADPH regenerating system; for Remaining (T = 60 min) / Remaining (T = NCF60 min): 60 min; for microsomal CLint at 1 µM / CLint scaled at 1 µM: human, human liver microsomes; for microsomal CLint at 1 µM / half-life at 1 µM / CLint scaled at 1 µM: pH 7.2; for half-life at 1 µM: 0.5 mg/ml protein, NADPH
Procedure, shortened: (§1)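 Compounds at 1 μM incubated at 37° C with pooled CD-1 mouse or human liver microsomes (0.5 mg/mL protein) plus NADPH regenerating system in 50 mM potassium phosphate, pH 7.2, 3.3 mM MgCl2; sampled at 0–60 min, 60-min no-NADPH control. Parent loss by LC/MS/MS analyte/IS peak-area ratio, n=1.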

[2] = test system: S6K1 (Thr389) phosphorylation (mTORC1 activity) in wild-type (WT) 293T cells; test: Inhibition of S6K1 (Thr389) phosphorylation in wild-type 293T cells (ELISA); type: cell-based, human; settings: for IC50: Homo sapiens, HEK-293T, 2 h, wild-type 293T cells, 2 hours treatment; for fold lower potency compared with RAD001 (by IC50) / extent of inhibition of S6K1 (Thr389) phosphorylation: wild-type cells; for extent of inhibition of S6K1 (Thr389) phosphorylation: with increasing concentrations
Procedure, shortened: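 WT 293T cells in DMEM + 10% FBS, grown 24 h to ~80% confluence, then treated 2 h at 37 °C in duplicate with compounds over an 8–11-point range from 0.001 pM to 10 μM. DMSO vehicle served as negative control. Phospho-S6K1 (Thr389) measured by ELISA.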

[3] = Pharmacokinetic studies in male CD-1 mice (plasma, IV and PO); type: in vivo, mouse; settings: male; for clearance / Vd / bioavailability: CD-1, plasma, mouse; for clearance / Vd / half-life: IV 2 mg/kg; for clearance: read-out: CI(mL/min/kg), compounds clearance following IV administration; for Vd: read-out: Vdss (L/kg), volume of distribution following IV administration; for bioavailability: PO 20 mg/kg vs IV 2 mg/kg; for half-life / Cmax / concentration at 8 h / concentration at 24 h: CD-1, mouse plasma; for half-life: read-out: IV T1/2 (converted); for Cmax / concentration at 8 h / concentration at 24 h: PO 20 mg/kg; for concentration at 8 h: read-out: Compound concentration at 8-hour, PO administration; for concentration at 24 h: read-out: Compound concentration at 24-hour, PO administration
Experimental: Animal experiments were carried out at Wuxi AppTec. Male 6-8 weeks old CDI mice were obtained from Hilltop Labs. Following arrival at Wuxi AppTec, mice were housed in animal rooms with environmental control (temperature: 20 to 26° C.; lighting: 12 hour light/dark cycle). Mice were fed with certified pellet diet (Certified Rodent Diet #5002 by LabDiet). Water was provided to the animals ad libitum. Mice were acclimated to the facility for at least 3 days prior to starting experiments.
Appropriate amount of test article formulated in 5% ethanol, 5% Tween-80 and 5% PEG-400, 85% water. Formulation was prepared on the day of dosing and dosed within 2 hours following preparation of formulations. Dose accuracy was determined by LC-MS/MS.
Dose formulation(s) were administered following facility SOPs. Dose volumes were determined individually prior to dosing based on animals' body weights.
About 40 μL of blood samples were collected via peripheral veins (e.g. saphenous veins) at each pre-defined time point. Blood samples were collected into tubes containing K2EDTA as anti-coagulant and kept on ice until centrifugation.
Blood samples were centrifuged at 4° C., 3000 g for 5 min within half an hour of collection. Plasma was transferred into polypropylene tubes or 96-well plates, promptly frozen on dry ice and stored at −70±10° C. until analysis by LC-MS/MS.
Test compound concentration in mouse plasma was determined with LC-MS/MS method using a calibration curve with at least 6 non-zero calibration standards.
The pharmacokinetics (PK) of the test article was analyzed using Phoenix WinNonlin software (version 8.3) and non-compartmental analysis model. Derived PK parameters include, but not limited to, C0, CLp, Vdss, Cmax, Tmax, T1/2, AUC(0-t), AUC(0-inf), MRT(0-t), MRT(0-inf) and % F (bioavailability).

[4] = test system: S6K1 (Thr389) phosphorylation (mTORC1 activity) in FKBP12 knock-out 293T cells; test: Inhibition of S6K1 (Thr389) phosphorylation in FKBP12 knock-out 293T cells (ELISA); type: cell-based, human; settings: for selectivity for FKBP12 compared with RAD001 (in words): wild-type versus FKBP12 knock-out cells
Procedure, shortened: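 CRISPR-generated FKBP12 knock-out HEK293T cells, alongside wild-type, were treated in duplicate for 2 hours at 37 °C with an 8–11-point dose range (0.001 pM–10 μM). Phospho-S6K1 Thr389 quantified by ELISA as an mTORC1 activity read-out, with DMSO as negative control.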

[5] = In vitro microsomal metabolic stability, CD-1 mouse liver microsomes; type: in vitro ADME; settings: for CLint scaled at 1 µM / microsomal CLint at 1 µM: CD-1, mouse, mouse liver microsomes, pH 7.2; for half-life at 1 µM: CD-1, pH 7.2, 0.5 mg/ml protein, NADPH; for half-life at 1 µM / Remaining (T = 60 min) / Remaining (T = NCF60 min): Mouse liver microsomes; for Remaining (T = 60 min): with NADPH; for Remaining (T = NCF60 min): without NADPH regenerating system; for Remaining (T = 60 min) / Remaining (T = NCF60 min): 60 min
Procedure, shortened: as §1

Structure (SMILES) | Remaining (T = 60 min) [1] | Remaining (T = NCF60 min) [1] | microsomal CLint at 1 µM [1] | half-life at 1 µM [1] | IC50 [2] | fold lower potency compared with RAD001 (by IC50) [2] | extent of inhibition of S6K1 (Thr389) phosphorylation [2] | clearance [3] | Vd [3] | bioavailability [3] | half-life [3] | Cmax [3] | inhibition of S6K1 (Thr389) phosphorylation in the absence of FKBP12 (in words) ([4]; FKBP12 knock-out cells) | selectivity for FKBP12 compared with RAD001 (in words) [4] | CLint scaled at 1 µM [5] | microsomal CLint at 1 µM [5] | half-life at 1 µM [5] | Remaining (T = 60 min) [5] | Remaining (T = NCF60 min) [5] | CLint scaled at 1 µM [1] | other results
CO[C@@H]1C[C@H](C[C@@H](C)[C@@H]2CC[C@H](C)/C=C(\C)[C@@H](O)[C@@H](OC)C(=O)[C@H](C)C[C@H](C)/C=C/C=C/C=C(\C)C(Nc3cnon3)C[C@@H]3CC[C@@H](C)[C@@](O)(O3)C(=O)C(=O)N3CCCCC3C(=O)O2)CC[C@H]1O (stereo partly drawn) [Compound 45, (3S,6S,7E,9R,10R,12R,14S,15E,17E,19E,23S,26R,27R,34aS)-21-((1,2,5-oxadiazol-3-yl)amino)-9,27-dihydroxy-3-((R)-1-((1S,3R,4R)-4-hydroxy-3-methoxycyclohexyl)propan-2-yl)-10-methoxy-6,8,12,14,20,26-hexamethyl-5,6,9,10,12,13,14,21,22,23,24,25,26,27,32,33,34,34a-octadecahydro-3H-23,27-epoxypyrido[2,1-c][1]oxa[4]azacyclohentriacontine-1,11,28,29(4H,31H)-tetraone] | 0.00% | 71.30% | 194 µL/min/mg | 0.119 h | 8.4 nM | ~18 fold | completely inhibit | 1.13 mL/min/kg | 0.475 L/kg | 17% | 5.63 h | 9.18 µg/mL | much less inhibition of S6K1 phosphorylation | relatively more selective for FKBP12 compared with RAD001 | 3.89 L/h/kg | 16.4 µL/min/mg | 1.41 h | 64.30% | 81.40% |  | concentration at 8 h [3]: 1.52 µg/mL; concentration at 24 h [3]: 0.239 µg/mL; fold less potent compared with RAD001 ([4]; FKBP12 knock-out cells, at similar level of inhibition): ~100 fold; inhibition at 10 µM ([4]; Homo sapiens, HEK-293T, FKBP12 knock-out cells, 10 μM (highest tested concentration)): ~25%
CO[C@@H]1C[C@H](C[C@@H](C)[C@@H]2CC[C@H](C)/C=C(\C)[C@@H](O)[C@@H](OC)C(=O)[C@H](C)C[C@H](C)/C=C/C=C/C=C(\C)C(NS(=O)(=O)c3cnoc3C)C[C@@H]3CC[C@@H](C)[C@@](O)(O3)C(=O)C(=O)N3CCCCC3C(=O)O2)CC[C@H]1O (stereo partly drawn) [Compound 51, N-((3S,6S,7E,9R,10R,12R,14S,15E,17E,19E,23S,26R,27R,34aS)-9,27-dihydroxy-3-((R)-1-((1S,3R,4R)-4-hydroxy-3-methoxycyclohexyl)propan-2-yl)-10-methoxy-6,8,12,14,20,26-hexamethyl-1,11,28,29-tetraoxo-1,4,5,6,9,10,11,12,13,14,21,22,23,24,25,26,27,28,29,31,32,33,34,34a-tetracosahydro-3H-23,27-epoxypyrido[2,1-c][1]oxa[4]azacyclohentriacontin-21-yl)-5-methylisoxazole-4-sulfonamide] | 0.20% | 89% | 202 µL/min/mg | 0.114 h | 4.53 nM | 12 fold | near complete inhibition |  |  |  |  |  | no further inhibition at 10 μM | not completely selective to FKBP12 | 15.3 L/h/kg | 64.3 µL/min/mg | 0.358 h | 15% | 85% | 10.9 L/h/kg | inhibition at 1 µM ([4]; Homo sapiens, HEK-293T, FKBP12 knock-out cells, 1 μM): 18%
CO[C@@H]1CC(C[C@@H](C)[C@@H]2CC[C@H](C)/C=C(\C)[C@@H](O)[C@@H](OC)C(=O)[C@H](C)C[C@H](C)/C=C/C=C/C=C(\C)C(Nc3ccccc3)CC3CC[C@@H](C)[C@@](O)(O3)C(=O)C(=O)N3CCCC[C@H]3C(=O)O2)CC[C@H]1O (stereo partly drawn) [Compound 26, (3S,6S,7E,9R,10R,12R,14S,15E,17E,19E,23S,26R,27R,34aS)-9,27-dihydroxy-3-((R)-1-((1S,3R,4R)-4-hydroxy-3-methoxycyclohexyl)propan-2-yl)-10-methoxy-6,8,12,14,20,26-hexamethyl-21-(phenylamino)-5,6,9,10,12,13,14,21,22,23,24,25,26,27,32,33,34,34a-octadecahydro-3H-23,27-epoxypyrido[2,1-c][1]oxa[4]azacyclohentriacontine-1,11,28,29(4H,31H)-tetraone] | 6.60% | 92.80% | 89.9 µL/min/mg | 0.257 h | 0.55 nM |  | complete inhibition | 2.31 mL/min/kg | 0.828 L/kg | 28.5% | 5.25 h | 4.12 µg/mL | not inhibit S6K1 at any tested concentrations | more selective to FKBP12 compared with RAD001 | 2.51 L/h/kg | 10.6 µL/min/mg | 2.18 h | 69.80% | 92.30% | 4.85 L/h/kg | concentration at 8 h [3]: 1.32 µg/mL; concentration at 24 h [3]: 0.184 µg/mL; IC50 of inhibition of S6K1 (Thr389) ([4]; FKBP12 knock-out 293T cells): not measurable/detectable
CCOc1cccc(NC2C[C@@H]3CC[C@@H](C)[C@@](O)(O3)C(=O)C(=O)N3CCCCC3C(=O)O[C@H]([C@H](C)C[C@@H]3CC[C@@H](O)[C@H](OC)C3)CC[C@H](C)/C=C(\C)[C@@H](O)[C@@H](OC)C(=O)[C@H](C)C[C@H](C)/C=C/C=C/C=C/2C)c1 (stereo partly drawn) [Compound 59, (3S,6S,7E,9R,10R,12R,14S,15E,17E,19E,23S,26R,27R,34aS)-21-((3-ethoxyphenyl)amino)-9,27-dihydroxy-3-((R)-1-((1S,3R,4R)-4-hydroxy-3-methoxycyclohexyl)propan-2-yl)-10-methoxy-6,8,12,14,20,26-hexamethyl-5,6,9,10,12,13,14,21,22,23,24,25,26,27,32,33,34,34a-octadecahydro-3H-23,27-epoxypyrido[2,1-c][1]oxa[4]azacyclohentriacontine-1,11,28,29(4H,31H)-tetraone] | 47% | 102% | 24.7 µL/min/mg | 0.937 h | 0.17 nM | 2 fold | near complete inhibition |  |  |  |  |  | inhibited the mTORC1 signaling in a dose dependent manner | relatively not FKBP12 selective | 2.45 L/h/kg | 10.3 µL/min/mg | 2.25 h | 76% | 112% | 1.33 L/h/kg | 
